Assay results as given in patent publication US10981926B2 (Janssen Pharmaceutica NV, priority 2016, dated 2021).

Key:
[1] = biological target: T1, F876L mutant Androgen Receptor (AR-F876L) (Homo sapiens (Human), UniProt P10275, F877L); assay: LNCaP-AR-F876L ANT reporter assay (antagonist mode); assay type: cell-based; settings: for Emax: read-out: LNCaP-AR-F876L ANT MAX % Inh; for IC50: read-out: LNCaP-AR-F876L ANT pIC50 (converted)
[2] = biological target: T2, wild-type Androgen Receptor (AR-wt) (Homo sapiens (Human), UniProt P10275); assay: LNCaP-AR-wt ANT reporter assay (antagonist mode); assay type: cell-based; settings: for Emax: read-out: LNCaP-AR-wt ANT MAX % Inh; for IC50: read-out: LNCaP-AR-wt ANT pIC50 (converted)
T2 sequence (P10275 whole entry): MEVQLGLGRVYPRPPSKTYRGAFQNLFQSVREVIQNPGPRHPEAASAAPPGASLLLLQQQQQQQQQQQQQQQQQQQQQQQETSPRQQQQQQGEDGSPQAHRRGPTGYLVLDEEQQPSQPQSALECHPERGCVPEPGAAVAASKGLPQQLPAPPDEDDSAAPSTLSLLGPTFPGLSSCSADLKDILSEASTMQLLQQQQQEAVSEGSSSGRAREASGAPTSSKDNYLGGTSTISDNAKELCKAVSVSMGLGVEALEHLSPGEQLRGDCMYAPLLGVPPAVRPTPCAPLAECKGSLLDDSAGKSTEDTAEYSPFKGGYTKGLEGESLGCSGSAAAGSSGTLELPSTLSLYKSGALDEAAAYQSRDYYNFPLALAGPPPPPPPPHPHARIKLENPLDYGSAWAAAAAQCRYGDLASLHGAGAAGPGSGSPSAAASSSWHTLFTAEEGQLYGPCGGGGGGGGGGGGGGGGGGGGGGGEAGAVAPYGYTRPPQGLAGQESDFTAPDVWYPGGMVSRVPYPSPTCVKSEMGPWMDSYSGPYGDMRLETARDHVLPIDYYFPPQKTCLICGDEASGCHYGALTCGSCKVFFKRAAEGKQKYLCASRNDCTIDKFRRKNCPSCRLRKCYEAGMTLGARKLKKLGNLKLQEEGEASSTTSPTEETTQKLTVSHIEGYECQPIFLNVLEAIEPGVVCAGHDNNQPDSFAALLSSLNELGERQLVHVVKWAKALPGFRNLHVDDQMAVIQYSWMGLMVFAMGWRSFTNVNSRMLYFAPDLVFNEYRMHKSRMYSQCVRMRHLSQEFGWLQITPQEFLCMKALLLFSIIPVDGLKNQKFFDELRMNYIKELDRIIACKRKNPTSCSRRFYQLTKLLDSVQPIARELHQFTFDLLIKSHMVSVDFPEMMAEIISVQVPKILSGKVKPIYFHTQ

[3] = biological target: T1, F876L mutant Androgen Receptor (AR-F876L); assay: LNCaP-AR-F876L AG reporter assay (agonist mode); assay type: cell-based; settings: for LNCaP-AR-F876L AG pEC50 / EC50: agonist mode, pEC50 = −Log10(EC50 in Molar); for Emax: read-out: LNCaP-AR-F876L AG MAX % Stim; for EC50: read-out: LNCaP-AR-F876L AG pEC50 (converted)
[4] = biological target: T2, wild-type Androgen Receptor (AR-wt); assay: LNCaP-AR-wt AG reporter assay (agonist mode); assay type: cell-based; settings: for LNCaP-AR-wt AG pEC50 / EC50: agonist mode, pEC50 = −Log10(EC50 in Molar); for Emax: read-out: LNCaP-AR-wt AG MAX % Stim; for EC50: read-out: LNCaP-AR-wt AG pEC50 (converted)
[5] = test system: rGABA-gated Cl− channel; assay: GABA-Gated Cl Channel Antagonist Radioligand Binding Assay; design: species or system rat; settings: 10 μM single point, [35S]-TBPS, cerebral cortex membrane homogenates
Method: GABA-gated C1 Chanel assays were performed at CEREP according to the following method. Membrane homogenates of cerebral cortex (120 μg protein) were incubated for 120 min at 22° C. with 3 nM […] in the absence or presence of the test compound in a buffer containing 50 mM Na2HPO4/KH2PO4 (pH 7.4) and 500 mM NaCl. Nonspecific binding was determined in the presence of 20 μM picrotoxinin. Following incubation, the samples were filtered rapidly under vacuum through glass fiber filters (GF/B, Packard) presoaked with 0.3% PEI and rinsed several times with ice-cold 50 mM Tris-HCl using a 96-sample cell harvester (Unifilter, Packard). The filters were dried then counted for radioactivity in a scintillation counter (Topcount, Packard) using a scintillation cocktail (Microscint 0, Packard). The results are expressed as a percent inhibition of the control radio ligand specific binding. The standard reference compound is picrotoxinin, which was tested in each experiment at several concentrations to obtain a competition curve from which its IC50 was calculated. In this assay, the following representative compounds disclosed herein had recorded activities at a 10 μM single point concentration in the GABA-gated Cl— Channel Binding Assay.

[6] = antagonist mode, pIC50 = −Log10(IC50 in Molar)
[7] = maximum % inhibition of R1881 control response over the tested concentration range
[8] = maximum % stimulation (agonist response) over the tested concentration range

T1 sequence (P10275 whole entry F877L): as the sequence (P10275 whole entry) above, with F877L counted along it

Emax [1, 7] [%] | Emax [2, 7] [%] | Emax [3, 8] [%] | Emax [4, 8] [%] | rGABA-gated Cl− channel % inh @10 μM [5] [%] | IC50 [1, 6] [nM] | LNCaP-AR-F876L ANT MAX % Inh [1, 7] [%] | IC50 [2, 6] [nM] | LNCaP-AR-wt ANT MAX % Inh [2, 7] [%] | LNCaP-AR-F876L AG MAX % Stim [3, 8] [%] | LNCaP-AR-wt AG MAX % Stim [4, 8] [%] | EC50 [3] [µM] | EC50 [4] [µM] | SMILES | LNCaP-AR-F876L ANT pIC50 [1, 6] | LNCaP-AR-wt ANT pIC50 [2, 6] | LNCaP-AR-F876L AG pEC50 [3] | LNCaP-AR-wt AG pEC50 [4]
 |  |  |  | 53.6 | 91.2 | 100.6 | 708 | 99.7 | 0.3 | 0.3 |  |  | N#Cc1ncc(N2C(=O)C3(CCC3)N(c3ccc(OC4CCCNCC4)cc3)C2=S)cc1C(F)(F)F (stereo not drawn) [Cpd 30, 5-[8-[4-(azepan-4-yloxy)phenyl]-5-oxo-7-thioxo-6,8-diazaspiro[3.4]octan-6-yl]-3-(trifluoromethyl)pyridine-2-carbonitrile] |  |  | <4.82 | <4.82
87.1 | 80.3 | 0.1 | 0.3 | 79.0 | 617 |  | 1290 |  |  |  | > 15.1 | > 15.1 | CCOC(=O)N1CCN(C(=O)c2ccc(N3C(=S)N(c4cnc(C#N)c(C(F)(F)F)c4)C(=O)C34CCC4)cc2)CC1 [Cpd 31, ethyl 4-[4-[6-[6-cyano-5-(trifluoromethyl)-3-pyridyl]-5-oxo-7-thioxo-6,8-diazaspiro[3.4]octan-8-yl]benzoyl]piperazine-1-carboxylate] |  |  |  | 
98.2 | 98.9 | 2.8 | 0.2 | 99.2 | 389 |  | 708 |  |  |  | > 15.1 | > 15.1 | COC(=O)CN1CCC(Oc2ccc(N3C(=S)N(c4cnc(C#N)c(C(F)(F)F)c4)C(=O)C34CCC4)cc2)CC1 [Cpd 33, methyl 2-[4-[4-[6-[6-cyano-5-(trifluoromethyl)-3-pyridyl]-5-oxo-7-thioxo-6,8-diazaspiro[3.4]octan-8-yl]phenoxy]-1-piperidyl]acetate] |  |  |  | 
89.7 | 82.7 | 0.2 | -0.4 | 91.2 | 1260 |  | 3310 |  |  |  | > 15.1 | > 15.1 | CC(C)(C)CCN1CCC(Oc2ccc(N3C(=S)N(c4cnc(C#N)c(C(F)(F)F)c4)C(=O)C34CCC4)cc2)CC1 [Cpd 34, 5-(5-(4-((1-(3,3-dimethylbutyl)piperidin-4-yl)oxy)phenyl)-8-oxo-6-thioxo-5,7-diazaspiro[3.4]octan-7-yl)-3-(trifluoromethyl)picolinonitrile] |  |  |  | 
99.5 | 100 | 0.3 | 0.2 | 49.9 | 372 |  | 912 |  |  |  | > 15.1 | > 15.1 | Cc1cc(N2C(=O)C3(CCC3)N(c3ccc(OC4CCN(C5CC5)CC4)cc3)C2=S)cnc1C#N [Cpd 35, 5-[8-[4-[(1-cyclopropyl-4-piperidyl)oxy]phenyl]-5-oxo-7-thioxo-6,8-diazaspiro[3.4]octan-6-yl]-3-methyl-pyridine-2-carbonitrile] |  |  |  | 
99.1 | 100 | 1 | -0.2 | 96.2 | 631 |  | 759 |  |  |  | > 15.1 | > 15.1 | N#Cc1ncc(N2C(=O)C3(CCC3)N(c3ccc(OC4CCN(C5CC5)CC4)cc3)C2=S)cc1C(F)(F)F [Cpd 36, 5-[8-[4-[(1-cyclopropyl-4-piperidyl)oxy]phenyl]-5-oxo-7-thioxo-6,8-diazaspiro[3.4]octan-6-yl]-3-(trifluoromethyl)pyridine-2-carbonitrile] |  |  |  | 
99.5 | 99.8 | 0 | 0.1 | 18.8 | 407 |  | 1260 |  |  |  | > 15.1 | > 15.1 | COCCN1CCC(Oc2ccc(N3C(=S)N(c4cnc(C#N)c(C)c4)C(=O)C34CCC4)cc2)CC1 [Cpd 37, 5-[8-[4-[[1-(2-methoxyethyl)-4-piperidyl]oxy]phenyl]-5-oxo-7-thioxo-6,8-diazaspiro[3.4]octan-6-yl]-3-methyl-pyridine-2-carbonitrile] |  |  |  | 
99.9 | 101 | 0.3 | 0 | 69.2 | 324 |  | 708 |  |  |  | > 15.1 | > 15.1 | COCCN1CCC(Oc2ccc(N3C(=S)N(c4cnc(C#N)c(C(F)(F)F)c4)C(=O)C34CCC4)cc2)CC1 [Cpd 38, 5-[8-[4-[[1-(2-methoxyethyl)-4-piperidyl]oxy]phenyl]-5-oxo-7-thioxo-6,8-diazaspiro[3.4]octan-6-yl]-3-(trifluoromethyl)pyridine-2-carbonitrile] |  |  |  | 
101 | 100 | -0.1 | 0.9 | 86.2 | 245 |  | 676 |  |  |  | > 15.1 | > 15.1 | N#CCN1CCC(Oc2ccc(N3C(=S)N(c4cnc(C#N)c(C(F)(F)F)c4)C(=O)C34CCC4)cc2)CC1 [Cpd 39, 5-[8-[4-[[1-(cyanomethyl)-4-piperidyl]oxy]phenyl]-5-oxo-7-thioxo-6,8-diazaspiro[3.4]octan-6-yl]-3-(trifluoromethyl)pyridine-2-carbonitrile] |  |  |  | 
96 | 97.6 | 1.5 | 0.2 | 67.5 | 1000 |  | 537 |  |  |  | > 15.1 | > 15.1 | N#Cc1ncc(N2C(=O)C3(CCC3)N(c3ccc(OC4CCN(CC(F)(F)F)CC4)cc3)C2=S)cc1C(F)(F)F [Cpd 40, 5-[5-oxo-7-thioxo-8-[4-[[1-(2,2,2-trifluoroethyl)-4-piperidyl]oxy]phenyl]-6,8-diazaspiro[3.4]octan-6-yl]-3-(trifluoromethyl)pyridine-2-carbonitrile] |  |  |  | 
99.9 | 99.3 | 0.1 | 0.1 | 20.4 | 257 |  | 427 |  |  |  | > 15.1 | > 15.1 | CN1CCC(Oc2ccc(N3C(=S)N(c4cnc(C#N)c(C(F)F)c4)C(=O)C34CCC4)cc2)CC1 [Cpd 41, 3-(difluoromethyl)-5-[8-[4-[(1-methyl-4-piperidyl)oxy]phenyl]-5-oxo-7-thioxo-6,8-diazaspiro[3,4]octan-6-yl]pyridine-2-carbonitrile] |  |  |  | 

SMILES | Emax [1, 7] [%] | Emax [2, 7] [%] | Emax [3, 8] [%] | Emax [4, 8] [%] | rGABA-gated Cl− channel % inh @10 μM [5] [%] | IC50 [1, 6] [nM] | LNCaP-AR-F876L ANT MAX % Inh [1, 7] [%] | IC50 [2, 6] [nM] | LNCaP-AR-wt ANT MAX % Inh [2, 7] [%] | LNCaP-AR-F876L AG MAX % Stim [3, 8] [%] | LNCaP-AR-wt AG MAX % Stim [4, 8] [%] | EC50 [3] [µM] | EC50 [4] [µM] | LNCaP-AR-F876L ANT pIC50 [1, 6] | LNCaP-AR-wt ANT pIC50 [2, 6] | LNCaP-AR-F876L AG pEC50 [3] | LNCaP-AR-wt AG pEC50 [4]
N#Cc1ncc(N2C(=O)C3(CCC3)N(c3ccc(O[C@H]4C[C@H]5CC[C@@H](C4)N5)cc3)C2=S)cc1C(F)(F)F [Cpd 29, 5-[8-[4-[[(1R,3r, 5S)-8-azabicyclo[3.2.1]octan-3-yl]oxy]phenyl]-5-oxo-7-thioxo-6,8-diazaspiro[3.4]octan-6-yl]-3-(trifluoromethyl)pyridine-2-carbonitrile] | 101 | 91.5 | 3.4 | 1.5 | 39.9 |  |  |  |  |  |  |  |  | 6.40 | 6.05 | <4.82 | <4.82
